Experimental data taken from patent publication US12378189B2, “Multi-aziridine compound” (priority 2020, dated 2025).

Columns and labels:
[1] = tested on: Bscl2-GFP and Rtkn-GFP reporters in mouse embryonic stem (mES) cells; assay: ToxTracker genotoxicity assay, overall conclusion from Bscl2-GFP and Rtkn-GFP; settings: positive: >= 2-fold induction at one of 10, 25, 50% cytotoxicity, with or without S9; not genotoxic: <= […] at all
Method: This methodology uses a two step-approach.
Metabolic was evaluated by addition of S9 liver extract. […] Only GFP expression in intact single cells is determined.

[2] = tested on: Rtkn-GFP reporter in mouse embryonic stem (mES) cells; assay: ToxTracker genotoxicity assay, Rtkn-GFP reporter induction;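 also: GFP reporter signal quantified solely in intact single cells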
Method: (§1) The genotoxicity can be measured by the ToxTracker® assay (Toxys, Leiden, the Netherlands) as further described herein.
(§2) Genotoxicity of examples and comparatives was evaluated by the ToxTracker® assay (Toxys, Leiden, the Netherlands). The ToxTracker assay is a panel of several validated Green Fluorescent Protein (GFP)-based mouse embryonic stem (mES) reporter cell lines that can be used to identify the biological reactivity and potential carcinogenic properties of newly developed compounds in a single test. This methodology uses a two step-approach.
(§3) In the first step a dose range finding was performed using wild-type mES cells (strain B4418). 20 different concentrations for each compound was tested, starting at 10 mM in DMSO as highest concentration and nineteen consecutive 2-fold dilutions.
(§4) Genotoxicity was evaluated at 10, 25 and 50% cytotoxicity in absence and presence of rat S9 liver extract-based metabolizing systems (aroclor1254-induced rats, Moltox, Boone, NC, USA). The independent cell lines were seeded in 96-well cell culture plates, 24 h after seeding the cells in the 96-well plates, fresh ES cell medium containing the diluted test substance was added to the cells. For each tested compound, five concentrations are tested in 2-fold dilutions. The highest sample concentration will induce significant cytotoxicity (50-70%). In case of no or low cytotoxicity, 10 mM or the maximum soluble mixture concentration is used as maximum test concentration. Cytotoxicity is determined by cell count after 24 h exposure using a Guava easyCyte 10HT flow cytometer (Millipore).
(§5) GFP reporter induction is always compared to a vehicle control treatment.
(§6) All compounds were tested in at least three completely independent repeat experiments. Positive reference treatment with cisplatin (DNA damage) were included in all experiments. Metabolic was evaluated by addition of S9 liver extract. Cells are exposed to five concentrations of the test compound in the presence of S9 and required co-factors (RegenSysA+B, Moltox, Boone, NC, USA) for 3 h. After washing, cells are incubated for 24 h in fresh ES cell medium. Induction of the GFP reporters is determined after 24 h exposure using a Guava easyCyte 10HT flow cytometer (Millipore). Only GFP expression in intact single cells is determined. Mean GFP fluorescence and cell concentrations in each well is measured, which is used for cytotoxicity assessment. Data was analyzed using ToxPlot software (Toxys, Leiden, the Netherlands). The induction levels reported are at compound concentrations that induce 10%, 25% and 50% cytotoxicity after 3 h exposure in the presence of S9 rat liver extract and 24 h recovery or alternatively after 24 h exposure when not in the presence of S9 rat liver extract.

[3] = tested on: Bscl2-GFP reporter in mouse embryonic stem (mES) cells; assay: ToxTracker genotoxicity assay, Bscl2-GFP reporter induction
Method: as §1, §2, §3, §4, §5, §6

[4] = with S9 rat liver extract, concentration inducing 10% cytotoxicity, 3 h exposure, 24 h recovery
[5] = with S9 rat liver extract, concentration inducing 25% cytotoxicity, 3 h exposure, 24 h recovery
[6] = with S9 rat liver extract, concentration inducing 50% cytotoxicity, 3 h exposure, 24 h recovery
[7] = without S9 rat liver extract, concentration inducing 10% cytotoxicity, 24 h exposure
[8] = without S9 rat liver extract, concentration inducing 25% cytotoxicity, 24 h exposure
[9] = without S9 rat liver extract, concentration inducing 50% cytotoxicity, 24 h exposure

Structure (SMILES) | Genotoxicity test result (conclusion) [1] | Rtkn induction level [2, 4] | Rtkn induction level [2, 5] | Rtkn induction level [2, 6] | Rtkn induction level [2, 7] | Rtkn induction level [2, 8] | Rtkn induction level [2, 9] | Bscl 2 induction level [3, 4] | Bscl 2 induction level [3, 5] | Bscl 2 induction level [3, 6] | Bscl 2 induction level [3, 7] | Bscl 2 induction level [3, 8] | Bscl 2 induction level [3, 9]
O=C(CCN1CC1)OCC(CO)(COC(=O)CCN1CC1)COC(=O)CCN1CC1 [Comp Ex 5, pentaerythritol tris(3-(1-aziridinyl)propionate)] | genotoxic |  |  |  |  |  |  |  |  |  |  |  | 
CCCCOCC(CN1CC1)OC(=O)NC1CCC(CC2CCC(NC(=O)OC(COCCCC)CN3CC3)CC2)CC1 (stereo not shown) [Comp. Ex 4] | genotoxic | 1.1 fold | 1.6 fold | 1.9 fold | 1.2 fold | 1.5 fold | 2.1 fold |  |  |  |  |  | 
O=C(NCCCCCCn1c(=O)n(CCCCCCNC(=O)OCCN2CC2)c(=O)n(CCCCCCNC(=O)OCCN2CC2)c1=O)OCCN1CC1 [Comp. Ex. 2] | genotoxic | 2.0 fold | 3.4 fold | 3.0 fold | 1.7 fold | 2.4 fold | 2.8 fold |  |  |  |  |  | 
CC(CN1CC1)OC(=O)NCCCCCCn1c(=O)n(CCCCCCNC(=O)OC(C)CN2CC2)c(=O)n(CCCCCCNC(=O)OC(C)CN2CC2)c1=O (stereo not shown) [Comp. Ex. 3] | genotoxic | 1.3 fold | 2.1 fold | 2.2 fold | 1.3 fold | 1.8 fold | 1.9 fold |  |  |  |  |  | 
CCCCOCC(CN1CC1)OC(=O)NCCCCCCn1c(=O)n(CCCCCCNC(=O)OC(COCCCC)CN2CC2)c(=O)n(CCCCCCNC(=O)OC(COCCCC)CN2CC2)c1=O (stereo not shown) [Ex. 1] | non-genotoxic | 1.0 fold | 1.1 fold | 1.1 fold | 1.0 fold | 1.0 fold | 0.9 fold |  |  |  |  |  | 
CCCCCCCCCC(=O)OCC(CN1CC1)OC(=O)NCCCCCCn1c(=O)n(CCCCCCNC(=O)OC(COC(=O)CCCCCCCCC)CN2CC2)c(=O)n(CCCCCCNC(=O)OC(COC(=O)CCCCCCCCC)CN2CC2)c1=O (stereo not shown) [Ex. 3] | non-genotoxic | 1.3 fold | 1.5 fold | 1.5 fold | 1.3 fold | 1.5 fold | 1.5 fold | 1.1 fold | 1.2 fold | 1.2 fold | 1.1 fold | 1.2 fold | 1.4 fold
CCCCOCC(CN1CC1)OC(=O)NCCCCCC/N=c1\oc(=O)n(CCCCCCNC(=O)OC(COCCCC)CN2CC2)c(=O)n1CCCCCCNC(=O)OC(COCCCC)CN1CC1 (stereo not shown) [Ex. 5] | non-genotoxic | 1.0 fold | 0.9 fold | 1.0 fold | 1.0 fold | 1.1 fold | 1.0 fold |  |  |  |  |  | 
